{"source": "patent US9757360B2", "about": "“Pharmaceutical composition comprising a ryanodine receptor antagonist for facilitating wound healing” (SZEGEDI TUDOMÁNYEGYETEM, priority 2013, dated 2017)", "key": {"[1]": {"system": "epidermal barrier function", "conditions": "cited from earlier work"}, "[2]": {"system": "full-thickness dermal wound", "experiment": "Histology of excised wounds (epithelialization zone, dermal regeneration)", "format": "in vivo, SKH-1 hairless mice", "conditions": "day 4; 100 μM topical once a day", "experimental": "(§1) The experiments were performed on male SKH-1 hairless mice of our own rearing (body weight: 36-44 g). Procedures and protocols were approved by the competent authorities (license number: V./145/2013.). Only healthy animals free of any type of injury were used, mice with any sign of disorders were discarded. Prior to the interventions the animals were anesthetized with a mixture of ketamine (Sigma) (90 mg/kg) and xylazine (Sigma) (25 mg/kg) administered intraperitoneally. A skin fold was formed in the dorsal region and was fixed with two symmetrical, fenestrated titanium plates (IROLA GmbH, Schonach, Germany) according to the description of Sorg et al. (Sorg et al., 2007).\nIn the midline of the dorsal region two holding stitches were placed in order to form a skin fold. This skin fold was sandwiched by two symmetrical, fenestrated titanium plates. The plates were fixed with sutures, bolts and nuts. […]\nHistology. […] Zone of epithelialization was defined as the extension of epithelial regeneration measured from the wound edges and given as percentage relative to the initial diameter of the wound. Dermal regeneration was determined, too (thickness of dermal connective tissue was measured within the wound area and was given as percentage relative to that of determined in the intact skin). […]"}, "[3]": {"system": "blood flow of the wound area", "experiment": "Laser-Doppler flowmetry of the wound area", "format": "in vivo, SKH-1 hairless mice", "conditions": "day 1 after wound creation; 200 μL dantrolene solution, measured 10 minutes later; 11 mm wound", "experimental": "as §1\n(§2) In the midline of the dorsal region two holding stitches were placed in order to form a skin fold. This skin fold was sandwiched by two symmetrical, fenestrated titanium plates. The plates were fixed with sutures, bolts and nuts. On one side of the skin fold, a circular full-thickness wound was made by removing the tissue down to muscle layer of the other side (the diameter of the wound was 4 mm while those of used for Laser-Doppler flowmetry came to 11 mm). The wound was covered with a glass coverslip incorporated into the window of the titanium frame. The glass was removed for the duration of treatments and measurements only. […]"}, "[4]": {"system": "full-thickness dermal wound", "experiment": "Macroscopic wound closure of full-thickness dermal wounds in a dorsal skin fold chamber (photo documentation)", "format": "in vivo, SKH-1 hairless mice", "conditions": "for Rate of wound closure vs control group: 100 μM topical once a day", "text": "In our experiments, we have studied the effects of dantrolene on different parameters of wound healing. SKH-1 hairless male mice were used in the experiments. Full-thickness wound was made in a dorsal skin fold. The effects of dantrolene or saline (control group) on wound healing were monitored by means of photo documentation, intravital videomicroscopy (IVM) and laser Doppler flowmetry. The experimental setup was in accordance with the model described by Sorg et al. (Sorg et al., 2007). Wounds were treated daily either with dantrolene or with saline.\nas §1, §2\nMacroscopic wound closure. […] The images were evaluated with a software developed by our working group (DermAssess©). […]"}, "[5]": {"system": "microcirculation of the wound edges", "experiment": "Intravital videomicroscopy (IVM) of the microcirculation of the wound edges", "format": "in vivo, SKH-1 hairless mice", "conditions": "100 μM topical once a day", "experimental": "as §1\nIn the midline of the dorsal region two holding stitches were placed in order to form a skin fold. This skin fold was sandwiched by two symmetrical, fenestrated titanium plates. The plates were fixed with sutures, bolts and nuts. On one side of the skin fold, a circular full-thickness wound was made by removing the tissue down to muscle layer of the other side (the diameter of the wound was 4 mm while those of used for Laser-Doppler flowmetry came to 11 mm). The wound was covered with a glass coverslip incorporated into the window of the titanium frame. The glass was removed for the duration of treatments and measurements only. In the control group (n=6), the wounds were treated with 100 μL of sterile saline once a day while in the dantrolene-treated group (n=6) 100 μL of a solution containing the sodium salt of dantrolene (100 μM) was applied to the wound once a day (the salt was dissolved in sterile saline). The observation period took 20 days (according to our previous results this is the time period needed for approximately 100% closure of wounds of 4 mm).\nIntravital videomicroscopy (IVM). Microcirculation of the wound edges was monitored by means of IVM on days 4, 8 and 12. After anesthesia, 80 μL of a solution of fluorescein-isothyocyanate (FITC) labeled dextrane (2%) and also 80 μL of a solution of rhodamine-6G was administered retrobulbar. These contrast materials allow us to visualize microcirculation and leukocyte-endothelial interactions at the appropriate wavelengths. Video records of the microcirculation were evaluated off-line with Pictron IVM software. Red blood cell velocity (RBCV) was determined in the capillaries, the diameter of each vessel in the evaluated fields-of-view was measured (only diameters above 6 μm were considered) and sticking leukocytes were counted in the postcapillary venules (this parameter is relative to the area of the vessel wall and is given as cell/μm2).\nControl- and dantrolene-treated groups were compared with the Mann-Whitney test and p<0.05 was considered statistically significant."}}}
{"smiles": "O=C1CN(/N=C/c2ccc(-c3ccc([N+](=O)[O-])cc3)o2)C(O)=N1", "note": "[dantrolene]", "values": [{"measurement": "Barrier regeneration", "setting": "[1]; local application, after removal of the uppermost layer of the epidermis", "value": "accelerates"}, {"measurement": "Transepidermal water loss", "setting": "[1]; mice with barrier function impaired after tape stripping of the upper epidermis", "value": "ameliorate"}, {"measurement": "Dermal regeneration vs control group", "setting": "[2]", "value": "more expressed"}, {"measurement": "Extension of epithelialization zone vs control", "setting": "[2]", "value": "more extended"}, {"measurement": "Blood flow in the wound area after vs before dantrolene treatment", "setting": "[3]", "value": "significant elevation"}, {"measurement": "Macroscopic wound closure (decrease in wound area relative to baseline)", "setting": "[4]; by day 20, 100 μL of 100 μM dantrolene sodium salt solution on the wound once a day, 4 mm wound", "value": "~100", "unit": "%"}, {"measurement": "Rate of wound closure vs control group", "setting": "[4]; day 16", "value": "no difference"}, {"measurement": "Rate of wound closure vs control group", "setting": "[4]; days 4, 8 and 12, p<0.05 vs saline control", "value": "significantly higher"}, {"measurement": "Number of sticking leukocytes in the postcapillary venules, difference vs control", "setting": "[5]; day 12", "value": "not statistically significant"}, {"measurement": "Vessel diameters at the wound edges vs control group", "setting": "[5]; days 4, 8 and 12 (corresponding times)", "value": "considerably higher"}, {"measurement": "Red blood cell velocity (RBCV) in the capillaries vs control group", "setting": "[5]; days 4, 8 and 12", "value": "higher"}, {"measurement": "Number of sticking leukocytes in the postcapillary venules vs control", "setting": "[5]; days 4 and 8", "value": "significantly decreased"}]}
